Results as given in ChEMBL document CHEMBL1131296 (J Med Chem, 1998).

Experiments:
[1] = molecular target: T1, Alpha-1D adrenergic receptor (Homo sapiens, UniProt P25100); assay: Binding affinity at human cloned Alpha-1D adrenergic receptor in chinese hamster ovary cells by [3H]prazosin displacement.; type: cell-based, CHO
T1 sequence (P25100 whole entry): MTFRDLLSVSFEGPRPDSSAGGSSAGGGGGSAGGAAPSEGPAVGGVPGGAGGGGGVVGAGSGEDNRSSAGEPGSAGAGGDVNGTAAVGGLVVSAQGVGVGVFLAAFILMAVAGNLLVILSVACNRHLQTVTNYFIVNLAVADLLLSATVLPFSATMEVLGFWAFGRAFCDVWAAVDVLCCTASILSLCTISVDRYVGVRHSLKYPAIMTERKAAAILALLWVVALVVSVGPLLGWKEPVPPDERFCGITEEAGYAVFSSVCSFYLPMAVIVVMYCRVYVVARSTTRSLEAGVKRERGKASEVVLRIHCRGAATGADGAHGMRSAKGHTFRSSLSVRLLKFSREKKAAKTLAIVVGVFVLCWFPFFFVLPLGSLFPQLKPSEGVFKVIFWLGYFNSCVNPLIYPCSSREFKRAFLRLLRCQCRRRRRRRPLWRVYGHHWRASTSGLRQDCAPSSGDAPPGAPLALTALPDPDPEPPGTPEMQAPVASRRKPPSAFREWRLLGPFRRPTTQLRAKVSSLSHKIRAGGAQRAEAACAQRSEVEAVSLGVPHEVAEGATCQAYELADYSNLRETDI

[2] = molecular target: T2, Alpha-1A adrenergic receptor (Homo sapiens, UniProt P35348); assay: Binding affinity at human cloned Alpha-1A adrenergic receptor in chinese hamster ovary cells by [3H]-prazosin displacement.; type: cell-based, CHO
T2 sequence (P35348 whole entry): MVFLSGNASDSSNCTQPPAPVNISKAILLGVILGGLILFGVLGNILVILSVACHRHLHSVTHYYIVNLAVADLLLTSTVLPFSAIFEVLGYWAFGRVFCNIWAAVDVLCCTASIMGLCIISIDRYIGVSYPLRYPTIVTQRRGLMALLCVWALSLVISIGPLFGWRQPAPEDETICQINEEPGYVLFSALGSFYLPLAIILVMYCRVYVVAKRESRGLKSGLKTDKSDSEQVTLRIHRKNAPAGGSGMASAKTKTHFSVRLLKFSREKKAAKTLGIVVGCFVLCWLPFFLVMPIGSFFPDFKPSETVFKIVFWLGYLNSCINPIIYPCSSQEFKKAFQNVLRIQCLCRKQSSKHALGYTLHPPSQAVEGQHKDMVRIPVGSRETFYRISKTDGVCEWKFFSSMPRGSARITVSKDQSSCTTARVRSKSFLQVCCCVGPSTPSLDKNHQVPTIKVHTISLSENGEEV

[3] = molecular target: T3, Alpha-1B adrenergic receptor (Homo sapiens, UniProt P35368); assay: Binding affinity at human cloned Alpha-1B adrenergic receptor in chinese hamster ovary cells by [3H]prazosin displacement.; type: cell-based, CHO
T3 sequence (P35368 whole entry): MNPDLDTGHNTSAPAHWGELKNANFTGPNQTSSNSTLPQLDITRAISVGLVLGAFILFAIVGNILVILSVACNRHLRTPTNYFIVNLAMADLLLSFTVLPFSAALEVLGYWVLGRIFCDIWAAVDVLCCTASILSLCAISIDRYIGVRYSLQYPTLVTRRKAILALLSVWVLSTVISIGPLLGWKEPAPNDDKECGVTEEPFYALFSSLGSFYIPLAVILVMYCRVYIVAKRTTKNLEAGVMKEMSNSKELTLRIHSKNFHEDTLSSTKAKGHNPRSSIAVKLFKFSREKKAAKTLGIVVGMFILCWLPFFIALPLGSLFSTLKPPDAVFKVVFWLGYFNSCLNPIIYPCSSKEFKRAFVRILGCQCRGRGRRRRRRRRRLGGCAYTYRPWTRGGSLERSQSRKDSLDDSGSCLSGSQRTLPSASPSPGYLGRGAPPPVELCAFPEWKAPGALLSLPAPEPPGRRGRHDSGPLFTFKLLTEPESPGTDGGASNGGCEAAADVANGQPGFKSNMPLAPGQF

D(2) dopamine receptor = D(2) dopamine receptor (Rattus norvegicus, UniProt P61169); assay: Binding affinity at native Dopamine receptor D2 in rat striatum by [3H]spiperone displacement.; type: tissue-based
[4] = molecular target: T4, Adrenergic receptor alpha-2 (Rattus norvegicus, UniProt P22086+P19328+P22909); assay: Antagonism of the clonidine-induced depression of twitch responses of rat isolated prostatic vas deferens.
T4 sequence (P22086 whole entry): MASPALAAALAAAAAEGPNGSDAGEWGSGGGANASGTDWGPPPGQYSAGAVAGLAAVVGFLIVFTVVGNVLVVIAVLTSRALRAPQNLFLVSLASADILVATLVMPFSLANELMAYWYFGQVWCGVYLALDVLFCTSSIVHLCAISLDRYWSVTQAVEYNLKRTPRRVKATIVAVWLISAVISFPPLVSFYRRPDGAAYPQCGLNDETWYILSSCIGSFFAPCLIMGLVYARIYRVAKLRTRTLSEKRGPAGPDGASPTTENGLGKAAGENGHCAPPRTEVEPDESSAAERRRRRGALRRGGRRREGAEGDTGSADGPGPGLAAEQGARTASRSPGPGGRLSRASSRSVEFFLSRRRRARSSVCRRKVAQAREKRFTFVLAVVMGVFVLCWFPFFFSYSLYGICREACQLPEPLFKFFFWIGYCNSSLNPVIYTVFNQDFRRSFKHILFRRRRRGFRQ
T4 sequence (P19328 whole entry): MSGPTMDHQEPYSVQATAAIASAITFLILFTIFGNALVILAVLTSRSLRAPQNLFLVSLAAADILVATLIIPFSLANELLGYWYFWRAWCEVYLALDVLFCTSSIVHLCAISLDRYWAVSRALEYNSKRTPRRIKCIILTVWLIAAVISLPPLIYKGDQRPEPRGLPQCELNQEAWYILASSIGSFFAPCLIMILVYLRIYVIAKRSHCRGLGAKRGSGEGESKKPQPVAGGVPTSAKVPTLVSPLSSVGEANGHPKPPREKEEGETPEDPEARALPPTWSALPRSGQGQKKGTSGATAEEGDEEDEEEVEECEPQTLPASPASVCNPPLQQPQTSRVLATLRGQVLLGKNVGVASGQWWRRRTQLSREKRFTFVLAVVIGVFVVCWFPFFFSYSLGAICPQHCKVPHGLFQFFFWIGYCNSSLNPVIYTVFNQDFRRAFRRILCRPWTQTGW
T4 sequence (P22909 whole entry): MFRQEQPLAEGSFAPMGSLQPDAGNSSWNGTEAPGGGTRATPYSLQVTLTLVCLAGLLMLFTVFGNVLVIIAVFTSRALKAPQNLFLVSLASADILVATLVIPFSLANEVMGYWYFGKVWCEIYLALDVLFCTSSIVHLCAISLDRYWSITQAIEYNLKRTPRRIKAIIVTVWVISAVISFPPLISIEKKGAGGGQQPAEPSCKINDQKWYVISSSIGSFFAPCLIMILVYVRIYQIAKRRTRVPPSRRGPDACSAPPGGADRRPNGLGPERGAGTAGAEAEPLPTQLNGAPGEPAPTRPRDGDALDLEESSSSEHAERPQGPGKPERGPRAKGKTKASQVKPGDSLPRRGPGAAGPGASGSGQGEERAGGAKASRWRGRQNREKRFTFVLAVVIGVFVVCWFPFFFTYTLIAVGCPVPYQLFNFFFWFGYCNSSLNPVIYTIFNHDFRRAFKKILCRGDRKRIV

Sequence of D(2) dopamine receptor (P61169 whole entry): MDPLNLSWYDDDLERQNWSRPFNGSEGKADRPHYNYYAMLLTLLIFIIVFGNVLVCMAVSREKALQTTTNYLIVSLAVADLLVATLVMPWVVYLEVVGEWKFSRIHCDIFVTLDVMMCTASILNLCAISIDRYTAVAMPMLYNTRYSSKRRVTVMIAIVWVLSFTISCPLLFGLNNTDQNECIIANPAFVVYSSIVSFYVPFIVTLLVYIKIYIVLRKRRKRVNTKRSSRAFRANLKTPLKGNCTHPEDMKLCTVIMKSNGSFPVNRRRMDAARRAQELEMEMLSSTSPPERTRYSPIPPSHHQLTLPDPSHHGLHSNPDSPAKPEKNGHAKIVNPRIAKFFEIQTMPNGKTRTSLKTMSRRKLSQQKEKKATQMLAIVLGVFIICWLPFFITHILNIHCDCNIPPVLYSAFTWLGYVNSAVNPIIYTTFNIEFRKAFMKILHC

SMILES	Ki [1] [nM]	Ki [2] [nM]	Ki [3] [nM]	Ki (D(2) dopamine receptor) [nM]	pA2 [4]
COc1cc2nc(N(C)CCSSCCN(C)C(=O)c3ccco3)nc(N)c2cc1OC	0.724	0.417	1.07	> 10000	< 5
COc1cc2nc(N(C)CCCCCCN(C)C(=O)c3ccco3)nc(N)c2cc1OC	0.195	0.166	0.11	–	6.66
